Measurements as given in patent US20160136295A1, “BIOMARKERS FOR TREATMENT WITH ANTI-TUBULIN CHEMOTHERAPEUTIC COMPOUNDS” (GENENTECH, INC., priority 2012, published 2016).
Square brackets hold non-standard residues; d marks the D form. Peptide text beside a SMILES is read from it. * marks the point of attachment. Dolaproine = CO[C@@H]([C@@H]1CCCN1)[C@@H](C)C(=O)O; Dil = CC[C@H](C)[C@H](NC)[C@@H](CC(=O)O)OC; X1 = C[C@@H](N*)[C@@H](O)c1ccccc1; NMeV = CN[C@H](C(=O)O)C(C)C

What was measured:
[1] = tested on: murine embryonic fibroblasts (MEFs); assay: Viability of BCL2-family-member-null MEFs by propidium iodide staining after anti-tubulin agents; assay type: cell-based; details: for killing (cell viability): treated 48 hours; for sensitivity to killing: 48 hours
Description: (§1) The viability of cancer cell lines, and MEFs in which genes encoding IAPs had been knocked out, was analysed by using the CellTiter-Glo Luminescent Cell Viability Assay® (Promega). Cells were treated in triplicate with anti-tubulin agents for the indicated times, using dimethylsulphoxide treatment as a control. The viability of BCL2-family-member-null MEFs was analysed by propidium iodide staining, as described previously (Chen, L. et al. (2005) Molecular cell 17:393-403), after treatment with anti-tubulin agents for 48 h. Cell synchronization was achieved by culture either in serum-free medium for 12-16 h or in medium containing 2 mM thymidine for 18-24 h, release from the thymidine block with three washes in PBS, followed by culture for 8-12 h in complete growth media (compositions are described in the Supplementary Information). Cells then underwent a second thymidine block for 16-20 h, three further washes in PBS and release into complete medium containing the indicated reagents. To block MCL1 degradation, […] MG132 was added as cells entered mitotic arrest, as assessed by visual inspection. See the Examples for full methods.

[2] = tested on: MEFs in which genes encoding IAPs had been knocked out; assay: Cell viability of MEF cell lines deficient in IAP genes (CellTiter-Glo); assay type: cell-based, murine; details: IAP-deficient MEFs plus siRNA, 48 hours
Description: as §1

[3] = tested on: Mcl-1; assay: Mcl-1 protein level / degradation in mitotic arrest (western blot of synchronized cells); assay type: cell-based, human; details: for maintenance of mitotic arrest (cdc27 phosphorylation) / Mcl-1 degradation in mitotic arrest: HeLa released into paclitaxel; for maintenance of mitotic arrest (cdc27 phosphorylation): CGP74514A 2 μM or roscovitine 2.5 μM; for Mcl-1 degradation in mitotic arrest: CGP74514A 2 μM, FR180204 2 μM, SP600125 25 μM, SB203580 2 μM added on entry into mitotic arrest
Description: as §1
(§2) Western blotting was performed essentially as described (Wertz, I. E. et al. (2004) Science (New York, N.Y 303:1371-1374). In brief, cells were lysed in corrected FLAG elution buffer (CFEB) (19.17 mM Tris (pH 7.5), 916.7 μM MgCl2, 92.5 mM NaCl and 0.1% Triton X-100) with protease and phosphatase inhibitors; in some cases 6 M urea was added. Cleared lysates were quantitated and equal amounts of proteins were reduced, alkylated, separated by SDS-PAGE, and transferred onto PVDF membranes (Invitrogen) following standard procedures. Western blotting was performed as recommended by the respective antibody manufacturers. Patient tissue and xenograft samples were lysed in 5× volume of CFEB with protease inhibitors using Fast prep 24 (MP Biologicals). Tissue lysates were cleared and 40 μg total protein was prepared for western blotting analysis as described above. Immunoprecipitations were performed with the indicated antibodies as described (Willis, S. N. et al. (2007) Science (New York, N.Y 315:856-859; Wertz, I. E. et al. (2004) Science (New York, N.Y 303:1371-1374). PP2A activity was performed on PP2A or Mcl-1 immunoprecipitates as recommended by the manufacturer (Upstate)

[4] = tested on: FBW7-WT, FBW7−/− or FBW7 mutant colon cancer cell lines (HCT116, DLD1); assay: Cell viability of colon cancer cell lines by FBW7 status (CellTiter-Glo); assay type: cell-based, human; details: 48 hours; for sensitivity to drug-induced death upon reducing Mcl-1 protein: FBW7-null HCT116 cells, doxycycline-inducible Mcl-1 shRNA
Description: as §1
were synthesized by Ambion and experiments were performed as described (Huang, H. C., et al (2009) Cancer cell 16:347-358). For viability experiments using stable cell lines transfected with doxycycline-inducible shRNAs to LacZ or Mcl-1 ORF, cells were plated in 10 cm2 plates with 0.2 μg/mL doxycycline for two days. On the third day, cells were plated in to 96-well plates at 5×10^3 per well for viability assays as described above. […] For western blot analysis, cells were harvested at indicated time points and processed as described above.

[5] = tested on: ovarian cancer cell lines; assay: Cell viability of ovarian cancer cell lines by FBW7 status; assay type: cell-based, human; details: FBW7-wild-type ovarian cancer cell lines that undergo mitotic arrest, relative to FBW7-mutant cells
Description: as §1

[6] = tested on: ovarian cancer cell lines; assay: Mitotic arrest in asynchronous ovarian cancer cell lines (western blot, phospho-histone H3 ELISA); assay type: cell-based, human; details: unsynchronized cell lines, 200 nM paclitaxel
Description: The unsynchronized cell lines (with FBW7 status specified in parentheses) were treated with 200 nM paclitaxel and were subsequently collected at the indicated time points for western blot and phospho-histone H3 ELISA analysis.

[7] = tested on: HCT116 cells; assay: Live time-lapse imaging of mitotic fate; assay type: cell-based, human; details: for drug-induced apoptosis upon decreasing Mcl-1 protein levels: FBW7-null cells with Mcl-1 shRNA vs control shRNA; for exit from drug-induced mitotic arrest (mitotic slippage): FBW7-null vs FBW7-wild-type cells
Description: HCT116 parental or FBW7−/− cells expressing shLacZ or shMcl-1 were plated at 15,000-30,000 cells per well in 96-well μ-plates (ibidi GmbH) and infected with GFP-H2B baculovirus (Invitrogen) 24 hours prior to adding paclitaxel or vincristine. Cells were imaged live at 37° C. with 5% CO2 using a Nikon TiE® microscope with a Cool Snap® CCD camera (Roper Scientific) and a Plan Apo VC 20× 0.75 NA objective. Three images with 6 μm z-steps were acquired for each position every 10 minutes for 43 hours. Mitotic fate was analyzed manually using NIS-Elements software (Nikon) and numerical data was complied and statistically analyzed using Excel (Microsoft). Fifty mitotic cells were analyzed for each condition and p-values were calculated for the change in the number of cells that exited mitosis or entered apoptosis using the one-tailed Fisher's exact test.

[8] = tested on: TOV112D-X1 ovarian tumors; assay: Ovarian tumor xenografts in vivo; set-up: species or system athymic nu/nu mice; details: tumors expressing FBW7-R505L vs FBW7-wild-type; 20 mg/kg intravenous, days 21 and 23 post implant
Description: Wild-type FBW7 TOV112D-X1 ovarian cancer cells expressing either an empty vector (vector) or the R505L point mutant (FBW7-R505L) were resuspended in Matrigel® (BD Biosciences) at a density of 1×10^8 cells/mL, and […] Matrigel® grafts containing 1×10^6 cancer cells were implanted under the kidney capsule of 8-week-old athymic nu/nu mice (Harlan Sprague Dawley). Only one graft was implanted per mouse. Once tumors became palpable on the kidney surface, tumor growth was assessed three times per week via caliper measurements of the entire kidney volume (0.523×length×width×height). On day 21 post-implant, when tumors reached an average volume of 700 mm^3, paclitaxel (APP Pharmaceuticals) was administered to both FBW7-WT and FBW7-R505L tumor groups via intravenous tail vein injection at 20 mg/kg in 5% dextrose water. Paclitaxel administration was repeated on day 23 post-implant. Statistical differences were evaluated using a two-tailed Student's t-test. P values of less than 0.05 were considered significant.

[9] = tested on: myc-Mcl-1 / FLAG-FBW7; assay: Recruitment of myc-Mcl-1 to FLAG-FBW7 in mitotic arrest (immunoprecipitation, HeLa cells); assay type: cell-based, human; details: HeLa released into paclitaxel; agent 1 hour then 3 hour 25 μM MG-132; SP600125 25 μM, SB203580 2.65 μM, CGP74514A, roscovitine 2.5 μM
Description: The indicated constructs were expressed in HeLa cells with or without scramble or cdc20 RNAi, and then synchronized and released into paclitaxel. […] Cells were subsequently collected and processed as indicated.
as §2

[10] = tested on: Granta-519, HCT-116 and HeLa cells; assay: Mitotic arrest and Mcl-1 degradation with MMAE (FIG. 5); assay type: cell-based
[11] = FBW7-null cell lines relative to wild-type cells

| SMILES | sensitivity to killing ([1]; BCL-X−/− MEFs vs wild-type) | sensitivity to killing ([1]; MCL-1−/− MEFs vs wild-type) | sensitivity to drug-induced death upon reducing Mcl-1 protein [4] | resistance to drug-induced cell death [4, 11] | drug-induced apoptosis upon decreasing Mcl-1 protein levels [7] | exit from drug-induced mitotic arrest (mitotic slippage) [7] | maintenance of mitotic arrest (cdc27 phosphorylation) [3] | Mcl-1 degradation in mitotic arrest [3] | recruitment of myc-Mcl-1 to FLAG-FBW7 in mitotic arrest [9] | other results |
| --- | --- | --- | --- | --- | --- | --- | --- | --- | --- | --- |
| CC(=O)O[C@H]1C(=O)[C@@]2(C)[C@H]([C@H](OC(=O)c3ccccc3)[C@]3(O)CC(OC(=O)[C@H](O)[C@@H](NC(=O)c4ccccc4)c4ccccc4)C(C)=C1C3(C)C)[C@]1(OC(C)=O)CO[C@@H]1C[C@@H]2O (relative stereo) [paclitaxel, β-(benzoylamino)-α-hydroxy-,6,12b-bis(acetyloxy)-12-(benzoyloxy)-2a,3,4,4a,5,6,9,10,11,12,12a,12b-dodecahydro-4,11-dihydroxy-4a,8,13,13-tetramethyl-5-oxo-7,11-methano-1H-cyclodeca(3,4)benz(1,2-b) oxet-9-ylester,(2aR-(2a-α,4-β,4a-β,6-β,9-α(α-R*,β-S*),11-α,12-α,12α-α,2b-α))-benzenepropanoic acid] | more sensitive than wild-type cells | enhanced sensitivity | restored their sensitivity | more resistant | enhanced | more readily | – | – | – | killing (cell viability) ([1]; BAX−/−/BAK−/− MEFs): resistant; killing (cell viability) ([1]; wild-type MEFs): significantly more sensitive; cell sensitivity upon ablation of IAP family proteins [2]: does not enhance cell sensitivity; Mcl-1 protein level in mitotic arrest ([3]; synchronized cells (HeLa) released into the agent): declined markedly; resistance to drug-induced cell death ([4]; FBW7−/− or FBW7 mutant colon cancer cell lines relative to FBW7-WT): more resistant; sensitivity (cell viability) [5]: sensitive; mitotic arrest [6]: arrested in mitosis; tumor resistance (tumor volume growth curves) [8]: more resistant |
| CCn1cnc2c(Nc3cccc(Cl)c3)nc(N[C@@H]3CCCC[C@@H]3N)nc21 [CGP74514A] | – | – | – | – | – | – | drives cells out of mitotic arrest | attenuate Mcl-1 degradation | attenuates recruitment of myc-Mcl-1 to FLAG-FBW7 | – |
| CC[C@H](C)[C@@H]([C@@H](CC(=O)N1CCC[C@H]1[C@H](OC)[C@@H](C)C(=O)N[C@H](C)[C@@H](O)c1ccccc1)OC)N(C)C(=O)[C@@H](NC(=O)[C@@H](NC)C(C)C)C(C)C [MMAE, (S)—N-((3R,4S,5S)-1-((S)-2-((1R,2R)-3-(((1S,2R)-1-hydroxy-1-phenylpropan-2-yl)amino)-1-methoxy-2-methyl-3-oxopropyl)pyrrolidin-1-yl)-3-methoxy-5-methyl-1-oxoheptan-4-yl)-N,3-dimethyl-2-((S)-3-methyl-2-(methylamino)butanamido)butanamide] (H-[NMeV]V[Dil][Dolaproine]-X1) | – | – | – | – | – | – | – | – | – | mitotic arrest (phospho-cdc27) [10]: promotes mitotic arrest; Mcl-1 degradation ([10]; subsequent to mitotic arrest): Mcl-1 degradation |
| C[S+]([O-])c1ccc(-c2nc(-c3ccncc3)c(-c3ccc(F)cc3)[nH]2)cc1 (centres unmarked) [SB203580] | – | – | – | – | – | – | – | attenuate Mcl-1 degradation | attenuates recruitment of myc-Mcl-1 to FLAG-FBW7 | – |
| CC[C@H](CO)Nc1nc(NCc2ccccc2)c2ncn(C(C)C)c2n1 [roscovitine] | – | – | – | – | – | – | drives cells out of mitotic arrest | – | attenuates recruitment of myc-Mcl-1 to FLAG-FBW7 | – |
| CC[C@]1(O)C[C@H]2CN(CCc3c([nH]c4ccccc34)[C@@](C(=O)OC)(c3cc4c(cc3OC)N(C=O)[C@H]3[C@@](O)(C(=O)OC)[C@H](OC(C)=O)[C@]5(CC)C=CCN6CC[C@]43[C@@H]65)C2)C1 [vincristine, 22-Oxovincaleukoblastine] | not BCL-X enhances sensitivity | enhanced sensitivity | restored their sensitivity | more resistant | enhanced | more readily | – | – | – | – |
